Measured values from patent US9718788B2, “Heteroaryl compounds useful as inhibitors of E1 activating enzymes” (MILLENNIUM PHARMACEUTICALS, INC., priority 2006, dated 2017).

Molecular target: T1, recombinant human NAE enzyme (Homo sapiens, UniProt Q8TBC4)
T1 construct: His (N); made in house; host or cells: Sf9 insect cells (baculovirus, Bac-to-Bac)
T1 sequence (Q8TBC4 1-463): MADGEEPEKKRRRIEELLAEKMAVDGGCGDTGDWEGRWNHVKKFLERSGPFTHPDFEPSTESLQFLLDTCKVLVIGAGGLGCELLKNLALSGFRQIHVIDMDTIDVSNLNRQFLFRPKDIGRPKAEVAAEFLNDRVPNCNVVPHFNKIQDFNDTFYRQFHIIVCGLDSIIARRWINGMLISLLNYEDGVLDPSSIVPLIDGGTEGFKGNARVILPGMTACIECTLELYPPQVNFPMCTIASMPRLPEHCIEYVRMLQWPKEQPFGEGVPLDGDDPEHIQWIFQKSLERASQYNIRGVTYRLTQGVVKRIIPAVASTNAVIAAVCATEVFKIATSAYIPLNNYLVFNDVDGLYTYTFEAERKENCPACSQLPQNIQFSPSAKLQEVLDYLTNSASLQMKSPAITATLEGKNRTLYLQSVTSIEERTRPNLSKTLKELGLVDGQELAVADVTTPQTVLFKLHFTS
T1 sequence (Q13564 1-534 partner): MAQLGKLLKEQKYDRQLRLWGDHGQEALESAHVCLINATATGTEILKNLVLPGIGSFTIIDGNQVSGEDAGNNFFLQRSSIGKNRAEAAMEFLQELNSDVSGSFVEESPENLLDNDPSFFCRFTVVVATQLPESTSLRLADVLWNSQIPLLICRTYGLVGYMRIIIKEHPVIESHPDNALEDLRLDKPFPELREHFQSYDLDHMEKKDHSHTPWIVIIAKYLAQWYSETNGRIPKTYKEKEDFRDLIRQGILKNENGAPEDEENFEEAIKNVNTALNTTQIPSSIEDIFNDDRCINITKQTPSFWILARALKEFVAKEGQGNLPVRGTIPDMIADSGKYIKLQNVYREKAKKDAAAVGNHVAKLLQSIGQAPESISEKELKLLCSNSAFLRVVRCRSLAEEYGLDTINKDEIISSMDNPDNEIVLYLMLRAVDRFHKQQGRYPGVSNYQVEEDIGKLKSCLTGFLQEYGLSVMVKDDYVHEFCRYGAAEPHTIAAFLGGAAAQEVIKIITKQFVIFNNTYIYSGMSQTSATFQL
Experiment: Nedd8-Activating Enzyme (NAE) HTRF Assay
Assay type: biochemical
Conditions: 20 μM ATP
Procedure, shortened: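 Recombinant human NAE (NAEα/His-NAEβ from Sf9 cells) at 0.20 nM with 20 μM ATP, 0.01 μM Ubc12-GST and 0.075 μM Nedd8-Flag in HEPES pH 7.5, 105 min at 24° C. EDTA stop; Eu-anti-FLAG/APC-anti-GST HTRF read after 1 h.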

| IC50 (bound given in μM) [µM] | IC50 (bound given in nM) [µM] | Compound |
| --- | --- | --- |
| > 10 | – | NS(=O)(=O)OC[C@@H]1C[C@@H](O)[C@H](Nc2cc(N[C@H]3CCc4ccccc43)ncn2)C1 [Compound I-76, [(1S,3R,4R)-3-({6-[(1S)-2,3-dihydro-1H-inden-1-ylamino]pyrimidin-4-yl}amino)-4-hydroxycyclopentyl]methyl sulfamate] |
| < 10 | > 0.5 | CO[C@H]1c2ccccc2C[C@H]1Oc1cc(O[C@@H]2C[C@@H](COS(N)(=O)=O)[C@@H](O)C2)ncn1 [Compound I-77, {(1S,2S,4R)-2-hydroxy-4-[(6-{[(1S,2R)-1-methoxy-2,3-dihydro-1H-inden-2-yl]oxy}-pyrimidin-4-yl)oxy]cyclopentyl}methyl sulfamate] |
| < 10 | > 0.5 | CO[C@@H]1c2ccccc2C[C@@H]1Oc1cc(O[C@@H]2C[C@@H](COS(N)(=O)=O)[C@@H](O)C2)ncn1 [Compound I-79, {(1S,2S,4R)-2-hydroxy-4-[(6-{[(1R,2S)-1-methoxy-2,3-dihydro-1H-inden-2-yl]oxy}-pyrimidin-4-yl)oxy]cyclopentyl}methyl sulfamate] |
| < 10 | > 0.5 | NS(=O)(=O)OC[C@@H]1C[C@@H](Oc2ncnc3c2ncn3Cc2ccccc2)C[C@@H]1O [Compound I-80, {(1S,2S,4R)-4-[(9-benzyl-9H-purin-6-yl)oxy]-2-hydroxycyclopentyl}methyl sulfamate] |
| < 10 | > 0.5 | NS(=O)(=O)OC[C@@H]1C[C@@H](Nc2cc(CCc3ccccc3)ncn2)C[C@@H]1O [Compound I-81, ((1S,2S,4R)-2-hydroxy-4-{[6-(2-phenylethyl)pyrimidin-4-yl]amino}cyclopentyl)methyl sulfamate] |
| – | ≤ 0.5 | CO[C@H]1Cc2ccccc2[C@H]1Nc1cc(O[C@@H]2C[C@@H](CNS(N)(=O)=O)[C@@H](O)C2)ncn1 [Compound I-82, N-({(1S,2S,4R)-2-hydroxy-4-[(6-{[(1R,2S)-2-methoxy-2,3-dihydro-1H-inden-1-yl]amino}pyrimidin-4-yl)oxy]cyclopentyl}methyl)sulfamide] |
| – | ≤ 0.5 | CO[C@H]1Cc2ccccc2[C@H]1Nc1ncnc(O[C@@H]2C[C@@H](COS(N)(=O)=O)[C@@H](O)C2)c1F [Compound I-83, {(1S,2S,4R)-4-[(5-fluoro-6-{[(1R,2S)-2-methoxy-2,3-dihydro-1H-inden-1-yl]amino}pyrimidin-4-yl)oxy]-2-hydroxycyclopentyl}methyl sulfamate] |
| – | ≤ 0.5 | NS(=O)(=O)OC[C@@H]1C[C@@H](Nc2ncnc3nc(-c4cccc5cccnc45)[nH]c23)C[C@@H]1O [Compound I-84, {(1S,2S,4R)-2-hydroxy-4-[(8-quinolin-8-yl-7H-purin-6-yl)amino]cyclopentyl}methyl sulfamate] |
| < 10 | > 0.5 | NS(=O)(=O)OC[C@H]1C[C@@H](Nc2cc(CCc3ccccc3)ncn2)[C@H](O)[C@@H]1O [Compound I-86, ((1R,2R,3S,4R)-2,3-dihydroxy-4-{[6-(2-phenylethyl)pyrimidin-4-yl]amino}cyclopentyl)-methyl sulfamate] |
| – | ≤ 0.5 | NS(=O)(=O)OC[C@@H]1C[C@@H](Oc2ncnc3[nH]c(-c4cccc5ccccc45)nc23)C[C@@H]1O [Compound I-87, ((1S,2S,4R)-2-hydroxy-4-{[8-(1-naphthyl)-9H-purin-6-yl]oxy}cyclopentyl)methyl sulfamate] |
| – | ≤ 0.5 | NS(=O)(=O)OC[C@@H]1C[C@@H](Nc2ncnc3[nH]c(Cc4ccccc4)nc23)C[C@@H]1O [Compound I-88, {(1S,2S,4R)-4-[(8-benzyl-9H-purin-6-yl)amino]-2-hydroxycyclopentyl}methyl sulfamate] |
| > 10 | – | NS(=O)(=O)OC[C@@H]1C[C@@H](Oc2cc(OCc3ccc(Cl)cc3)ncn2)C[C@@H]1O [Compound I-89, [(1S,2S,4R)-4-({6-[(4-chlorobenzyl)oxy]pyrimidin-4-yl}oxy)-2-hydroxycyclopentyl]methyl sulfamate] |
| – | ≤ 0.5 | NS(=O)(=O)OC[C@@H]1C[C@@H](Nc2ncnc3oc(-c4ccccc4)nc23)C[C@@H]1O [Compound I-90, {(1S,2S,4R)-2-hydroxy-4-[(2-phenyl[1,3]oxazolo[5,4-d]pyrimidin-7-yl)amino]cyclopentyl}methyl sulfamate] |
| < 10 | > 0.5 | NS(=O)(=O)OC[C@H]1C[C@@H](Nc2cc(N[C@H]3CCC[C@@H]3OCc3ccccc3)ncn2)[C@H](O)[C@@H]1O [Compound I-92, {(1R,2R,3S,4R)-4-[(6-{[(1S,2S)-2-(benzyloxy)cyclopentyl]amino}pyrimidin-4-yl)amino]-2,3-dihydroxycyclopentyl}methyl sulfamate] |
| – | ≤ 0.5 | COc1cccc(OC)c1-c1nc2c(N[C@@H]3C[C@@H](COS(N)(=O)=O)[C@@H](O)C3)ncnc2[nH]1 [Compound I-93, ((1S,2S,4R)-4-{[8-(2,6-dimethoxyphenyl)-9H-purin-6-yl]amino}-2-hydroxycyclopentyl)methyl sulfamate] |
| < 10 | > 0.5 | NS(=O)(=O)OC[C@@H]1C[C@@H](Oc2ccnc(N[C@H]3CCc4ccccc43)c2)C[C@@H]1O [Compound I-94, [(1S,2S,4R)-4-({2-[(1S)-2,3-dihydro-1H-inden-1-ylamino]pyridin-4-yl}oxy)-2-hydroxycyclopentyl]methyl sulfamate] |
| < 10 | > 0.5 | CO[C@H]1Cc2ccccc2[C@H]1Oc1cc(O[C@@H]2C[C@@H](COS(N)(=O)=O)[C@@H](O)C2)ncn1 [Compound I-96, {(1S,2S,4R)-2-hydroxy-4-[(6-{[(1R,2S)-2-methoxy-2,3-dihydro-1H-inden-1-yl]oxy}-pyrimidin-4-yl)oxy]cyclopentyl}methyl sulfamate] |
| > 10 | – | NS(=O)(=O)OC[C@@H]1C[C@@H](Oc2ccncn2)C[C@@H]1O [Compound I-97, [(1S,2S,4R)-2-hydroxy-4-(pyrimidin-4-yloxy)cyclopentyl]methyl sulfamate] |
| < 10 | > 0.5 | CO[C@@H]1Cc2ccccc2[C@@H]1Oc1cc(O[C@@H]2C[C@@H](COS(N)(=O)=O)[C@@H](O)C2)ncn1 [Compound I-98, {(1S,2S,4R)-2-hydroxy-4-[(6-{[(1S,2R)-2-methoxy-2,3-dihydro-1H-inden-1-yl]oxy}-pyrimidin-4-yl)oxy]cyclopentyl}methyl sulfamate] |
| – | ≤ 0.5 | COc1cccc(-c2nc3c(N[C@@H]4C[C@@H](COS(N)(=O)=O)[C@@H](O)C4)ncnc3[nH]2)c1 [Compound I-99, ((1S,2S,4R)-2-hydroxy-4-{[8-(3-methoxyphenyl)-9H-purin-6-yl]amino}cyclopentyl)methyl sulfamate] |
| – | ≤ 0.5 | CC1(C)Cc2cccc(-c3nc4c(N[C@@H]5C[C@@H](COS(N)(=O)=O)[C@@H](O)C5)ncnc4[nH]3)c2O1 [Compound I-100, ((1S,2S,4R)-4-{[8-(2,2-dimethyl-2,3-dihydro-1-benzofuran-7-yl)-9H-purin-6-yl]amino}-2-hydroxycyclopentyl)methyl sulfamate] |
| – | ≤ 0.5 | Cc1cccc(S(=O)(=O)c2nc3c(O[C@@H]4C[C@@H](COS(N)(=O)=O)[C@@H](O)C4)ncnc3[nH]2)c1 [Compound I-101, [(1S,2S,4R)-2-hydroxy-4-({8-[(3-methylphenyl)sulfonyl]-9H-purin-6-yl}oxy)cyclopentyl]methyl sulfamate] |
| – | ≤ 0.5 | NS(=O)(=O)OC[C@@H]1C[C@@H](Nc2ncnc3nc(-c4ccc(OCc5ccccc5)cc4)[nH]c23)C[C@@H]1O [Compound I-102, [(1S,2S,4R)-4-({8-[4-(benzyloxy)phenyl]-7H-purin-6-yl}amino)-2-hydroxycyclopentyl]methyl sulfamate] |
| – | ≤ 0.5 | CN(C)c1ccc(-c2nc3ncnc(O[C@@H]4C[C@@H](COS(N)(=O)=O)[C@@H](O)C4)c3[nH]2)c2ccccc12 [Compound I-103, [(1S,2S,4R)-4-({8-[4-(dimethylamino)-1-naphthyl]-7H-purin-6-yl}oxy)-2-hydroxycyclopentyl]methyl sulfamate] |
| < 10 | > 0.5 | OC[C@@H]1C[C@@H](Nc2ncnc3[nH]c(-c4cccc5c4CCCC5)nc23)C[C@@H]1O [Compound I-110, (1S,2S,4R)-2-(hydroxymethyl)-4-{[8-(5,6,7,8-tetrahydronaphthalen-1-yl)-9H-purin-6-yl]-amino}cyclopentanol] |
| – | ≤ 0.5 | NS(=O)(=O)OC[C@@H]1C[C@@H](Nc2ncnc3[nH]c(-c4ccc(Cl)cc4)nc23)C[C@@H]1O [Compound I-111, ((1S,2S,4R)-4-{[8-(4-chlorophenyl)-9H-purin-6-yl]amino}-2-hydroxycyclopentyl)methyl sulfamate] |
